From publication PMC9151520 (Archives of Toxicology, 2022)
Several values for one entry are separate records, joined by “and”; a condition that tells them apart may be missing. Equal entries are not always repeated. Where two headings read alike, the source gives them in different places.

Tests used:
[1] = test system: p53 signaling (p53RE-bla HCT-116 cells); experiment: cells; format: cell-based
[2] = test system: p53RE-bla HCT-116 cells
[3] = test system: p53 signaling (p53RE-bla HCT-116 cells)
[4] = test system: p53 signaling (p53RE-bla HCT-116 cells); remark: listed apart in the source
[5] = Homo sapiens, HCT-116, read-out: EC50, p53 activation, primary screening
[6] = Homo sapiens, HCT-116, read-out: Efficacy, p53 activation, primary screening
[7] = Homo sapiens, HCT-116, read-out: p53 activation EC50, cherry pick confirmation
[8] = Homo sapiens, HCT-116, read-out: p53 activation EC50, primary screening
[9] = Homo sapiens, HCT-116, read-out: p53 activation efficacy, cherry pick confirmation
[10] = Homo sapiens, HCT-116, read-out: p53 activation efficacy, primary screening

| Compound | EC50, p53 activation, cherry pick confirmation [1] | Efficacy, p53 activation, cherry pick confirmation [1] | EC50 [1, 5] [µM] | Emax [1, 6] [%] | EC50, viability, cherry pick confirmation [2] | EC50, viability, primary screening [2] | Efficacy, viability, cherry pick confirmation [2] | Efficacy, viability, primary screening [2] | EC50, p53 activation, cherry pick confirmation [3] | EC50, p53 activation, primary screening [3] | Efficacy, p53 activation, cherry pick confirmation [3] | Efficacy, p53 activation, primary screening [3] | EC50, p53 activation, cherry pick confirmation [4] | EC50, p53 activation, primary screening [4] | Efficacy, p53 activation, cherry pick confirmation [4] | Efficacy, p53 activation, primary screening [4] | EC50 [1, 7] [µM] | EC50 [1, 8] [µM] | Emax [1, 9] [%] | Emax [1, 10] [%] | other results |
| --- | --- | --- | --- | --- | --- | --- | --- | --- | --- | --- | --- | --- | --- | --- | --- | --- | --- | --- | --- | --- | --- |
| Cn1cnc([N+](=O)[O-])c1Sc1ncnc2nc[nH]c12 [Azathioprine] | inactive | inactive | 33.7 | 39.9 | inactive | inactive | inactive | inactive | inactive | inactive | inactive | inactive | inactive | inactive | inactive | inactive |  |  |  |  |  |
| Cc1ccccc1C(=O)Nc1ccc(C(=O)N2CCCC(N(C)C)c3ccccc32)cc1 (centres unmarked) [Mozavaptan] |  |  |  |  |  |  |  |  |  |  |  |  |  |  |  |  | 1.36 | 7.97 | 38.6 | 66.2 | Viability EC50, cherry pick confirmation [2]: inactive; Viability EC50, primary screening [2]: inactive; Viability efficacy, cherry pick confirmation [2]: inactive; Viability efficacy, primary screening [2]: inactive; p53 activation EC50, cherry pick confirmation [3]: inactive; p53 activation EC50, primary screening [3]: inactive; p53 activation efficacy, cherry pick confirmation [3]: inactive; p53 activation efficacy, primary screening [3]: inactive; p53 activation EC50, cherry pick confirmation [4]: inactive; p53 activation EC50, primary screening [4]: inactive; p53 activation efficacy, cherry pick confirmation [4]: inactive; p53 activation efficacy, primary screening [4]: inactive |
| O=C(Nc1cccc(Cl)c1)OCC#CCCl [Barban] |  |  |  |  |  |  |  |  |  |  |  |  |  |  |  |  | 32.3 | 19 | 46.3 | 37.2 | Viability EC50, cherry pick confirmation [2]: inactive; Viability EC50, primary screening [2]: inactive; Viability efficacy, cherry pick confirmation [2]: inactive; Viability efficacy, primary screening [2]: inactive; p53 activation EC50, cherry pick confirmation [3]: inactive; p53 activation EC50, primary screening [3]: inactive; p53 activation efficacy, cherry pick confirmation [3]: inactive; p53 activation efficacy, primary screening [3]: inactive; p53 activation EC50, cherry pick confirmation [4]: inactive; p53 activation EC50, primary screening [4]: inactive; p53 activation efficacy, cherry pick confirmation [4]: inactive; p53 activation efficacy, primary screening [4]: inactive |
| CCOC(=O)NC(=S)Nc1ccccc1NC(=S)NC(=O)OCC [Thiophanate] | inactive | inactive | 41 | 70.2 | inactive | inactive | inactive | inactive | inactive | inactive | inactive | inactive | inactive | inactive | inactive | inactive |  |  |  |  |  |
| O=S(=O)(O)c1ccccc1C=Cc1ccc(-c2ccc(C=Cc3ccccc3S(=O)(=O)O)cc2)cc1.[Na].[Na] [Disodium 4,4'-bis(2-sulfostyryl)biphenyl] |  |  |  |  |  |  |  |  |  |  |  |  |  |  |  |  |  |  |  |  | activity outcome in p53-bla assay [1]: also active in the absence of microsomes; p53 activation Efficacy, No MS [1]: 37.8243% and 32.5267%; EC50 ([1]; read-out: p53 activation EC50, No MS): 25.3 µM and 34.2 µM; Viability EC50, HLM [2]: inactive; Viability EC50, No MS [2]: inactive; Viability EC50, RLM [2]: inactive; Viability Efficacy, HLM [2]: inactive; Viability Efficacy, No MS [2]: inactive; Viability Efficacy, RLM [2]: inactive; EC50 [3]: 29.8 µM; EC50 ([3]; read-out: p53 activation EC50, RLM): 29.8 µM and 24.9 µM; activity outcome in p53-bla assay [4]: active; EC50 ([4]; read-out: p53 activation EC50, HLM): 18.8 µM and 28.2 µM |
